pEC50: −log10 of the molar value. Where “and” joins values, the source holds several entries; their conditions need not be identical. Equal values may be shown once.
Experiments:
[1] = Mouse blood and tumour pharmacokinetics in NCI-H441 tumour bearing mice; conditions: for RMC-7977 (nmol/kg) Tumor: single dose, individual animals
Experimental: Tumour tissue samples were homogenized with a 10× volume of methanol/15 mM PBS (1:2, v:v). Sample preparation and analysis on a Sciex 6500+ triple quadrupole mass spectrometer equipped with an ACQUITY UPLC system were performed as previously described[12].
All datapoints shown, n = 3 per dose and timepoint.
Female BALB/c nude mice, NOD SCID and NSG mice 6-8 weeks old from Beijing Vital River/VR Laboratory Animal Co., LTD, Beijing AniKeeper Biotech Co., Ltd., Shanghai Sino-British SIPPR/BK Laboratory Animal Co., LTD and The Jackson Laboratory were used. Animals were housed in polycarbonate cages, in an environmentally monitored, well ventilated room maintained at a constant temperature of 20-26°C and relative humidity of 40-80%. Fluorescent lighting provided illumination approximately 12 hours per day. Each mouse was inoculated at the right flank with tumor cells (2x10^6-1x10^7) in 100-200 µL of media/PBS supplemented with Matrigel (1:1). Treatments were started when the average tumor size reached 100-250 mm^3. […] Mice on studies were weighed and tumor measurements collected twice weekly. […] Body weights were collected twice a week during the study. For single-dose pharmacokinetic/pharmacodynamics (PK/PD) study, mice were randomized into treatment groups when mean tumor volume reached 400-600 mm^3.

[2] = system: NCI-H358 cells (CYPA-high, CYPA-low); test: pERK (MSD) in NCI-H358 cells with low or high CYPA; conditions: NCI-H358, doxycycline-inducible CYPA
Excerpt: NCI-H358 cells were transduced by lentivirus encoding Cas9, a guide RNA targeting PPIA (which encodes CYPA), and the puromycin resistance gene at WarpDrive Bio. Following puromycin selection, Flag–CYPA was introduced under the control of a tet-inducible promoter by lentivirus. Clones with high and low expression levels of Flag–CYPA were isolated at Revolution Medicines.

[3] = system: Pa16C cells expressing MEK1 mutants; test: Proliferation (Calcein AM) of Pa16C cells expressing MEK1 mutants; format: cell-based, human
KRAS^G12S = KRAS^G12S (Homo sapiens, UniProt P01116+P62937, G12S); test: Cellular RAS–RAF (CRAF RBD) disruption, nano-BRET in U2OS cells; format: cell-based; set-up: expressed in transfected cells; host or cells: U2OS PPIA-KO; conditions: (95% CI)
Excerpt: KRAS4B, or other small GTPases, containing the indicated mutations were cloned in pNLF-N or pHTN plasmids for expression with an N-terminal nanoluciferase or HaloTag fusion, respectively. […] The following day, the cells were collected by Trypsin and reseeded in a white tissue culture-treated 96-well plate in OptiMem phenol red-free medium (Gibco) containing 4% FBS and a 1:1,000 dilution of NanoBRET 618 HaloTag ligand (Promega). For endpoint concentration response curves, vivazine nanoluciferase substrate was added to 1× concentration in OptiMem phenol red-free medium with 4% FBS. Varying concentrations of inhibitor were added and incubated for 1 or 4 h before the nano-BRET signal was measured on a Perkin Elmer Envision plate reader. For kinetic assays, endurazine nanoluciferase substrate was used in place of vivazine, and the plate was placed in a Cytation5 multi-mode reader pre-equilibrated to 37 °C and 5% CO2.

CCn1c(-c2cc(N3CCN(C4CC4)CC3)cnc2[C@H](C)OC)c2c3cc(ccc31)-c1csc(n1)C[C@H](NC(=O)[C@H]1[C@@H]3COC[C@@H]31)C(=O)N1CCC[C@H](N1)C(=O)OCC(C)(C)C2 [RMC-7977]
RMC-7977 (nmol/kg) Tumor ([1]; 24h, 10 mg/kg): 310 nmol/kg and 343 nmol/kg and 320 nmol/kg and 402 nmol/kg and 316 nmol/kg and 606 nmol/kg | RMC-7977 (nmol/kg) Tumor ([1]; 24h, 25 mg/kg): 1047 nmol/kg and 906 nmol/kg and 996 nmol/kg | RMC-7977 (nmol/kg) Tumor ([1]; 48h, 1 mg/kg): 27 nmol/kg and 31.7 nmol/kg | RMC-7977 (nmol/kg) Tumor ([1]; 48h, 5 mg/kg): 68.9 nmol/kg and 51.9 nmol/kg and 52.5 nmol/kg | RMC-7977 (nmol/kg) Tumor ([1]; 48h, 10 mg/kg): 177 nmol/kg and 192 nmol/kg and 214 nmol/kg and 205 nmol/kg and 233 nmol/kg and 65.7 nmol/kg | RMC-7977 (nmol/kg) Tumor ([1]; 48h, 25 mg/kg): 433 nmol/kg and 394 nmol/kg and 691 nmol/kg | RMC-7977 (nmol/kg) Tumor ([1]; 72h, 5 mg/kg): 52.4 nmol/kg and 38.4 nmol/kg | RMC-7977 (nmol/kg) Tumor ([1]; 72h, 10 mg/kg): 155 nmol/kg and 86.2 nmol/kg and 63.8 nmol/kg and 71.8 nmol/kg and 72 nmol/kg | RMC-7977 (nmol/kg) Tumor ([1]; 72h, 25 mg/kg): 253 nmol/kg and 209 nmol/kg and 230 nmol/kg | overall exposure in subcutaneous tumours compared with blood ([1]; subcutaneous xenograft tumour models): approximately threefold increase | sensitivity of CYPA-high versus CYPA-low cells, inhibition of signalling (pERK) [2]: threefold | Proliferation of Pa16C cells expressing MEK1 mutant constructs ([3]; MEK1E102-I103del, inhibitor 0.010 nM): 100 | Proliferation of Pa16C cells expressing MEK1 mutant constructs ([3]; MEK1E102-I103del, inhibitor 0.046 nM): 104.2 and 107.7 and 121 and 88.4 | Proliferation of Pa16C cells expressing MEK1 mutant constructs ([3]; MEK1E102-I103del, inhibitor 11.111 nM): 80.9 and 75.7 and 68.8 and 87.1 | Proliferation of Pa16C cells expressing MEK1 mutant constructs ([3]; MEK1E102-I103del, inhibitor 33.333 nM): 72.5 and 68.1 and 61 and 93 | Proliferation of Pa16C cells expressing MEK1 mutant constructs ([3]; MEK1E102-I103del, inhibitor 100.000 nM): 65.9 and 65.1 and 49.1 and 77.1 | Proliferation of Pa16C cells expressing MEK1 mutant constructs ([3]; MEK1E102-I103del, inhibitor 300.000 nM): 58.5 and 56.3 and 42.3 and 60.5 | Proliferation of Pa16C cells expressing MEK1 mutant constructs ([3]; MEK1K57N, inhibitor 0.010 nM): 100 | Proliferation of Pa16C cells expressing MEK1 mutant constructs ([3]; MEK1K57N, inhibitor 0.046 nM): 132.7 and 110.5 and 108.3 | Proliferation of Pa16C cells expressing MEK1 mutant constructs ([3]; MEK1K57N, inhibitor 11.111 nM): 106.5 and 108.3 and 128.9 | Proliferation of Pa16C cells expressing MEK1 mutant constructs ([3]; MEK1K57N, inhibitor 33.333 nM): 101 and 88.9 and 126.9 | Proliferation of Pa16C cells expressing MEK1 mutant constructs ([3]; MEK1K57N, inhibitor 100.000 nM): 86.3 and 76.5 and 119.3 | Proliferation of Pa16C cells expressing MEK1 mutant constructs ([3]; MEK1K57N, inhibitor 300.000 nM): 68.3 and 60.7 and 90.3 | Proliferation of Pa16C cells expressing MEK1 mutant constructs ([3]; MEK1Q56P, inhibitor 0.010 nM): 100 | Proliferation of Pa16C cells expressing MEK1 mutant constructs ([3]; MEK1Q56P, inhibitor 0.046 nM): 111.1 and 128.1 and 116.5 | Proliferation of Pa16C cells expressing MEK1 mutant constructs ([3]; MEK1Q56P, inhibitor 11.111 nM): 109 and 97.6 and 77.9 | Proliferation of Pa16C cells expressing MEK1 mutant constructs ([3]; MEK1Q56P, inhibitor 33.333 nM): 99.6 and 83.8 and 68 | Proliferation of Pa16C cells expressing MEK1 mutant constructs ([3]; MEK1Q56P, inhibitor 100.000 nM): 81.8 and 65.9 and 54.2 | Proliferation of Pa16C cells expressing MEK1 mutant constructs ([3]; MEK1Q56P, inhibitor 300.000 nM): 72.6 and 57.1 and 47.4 | Proliferation of Pa16C cells expressing MEK1 mutant constructs ([3]; MEK1S218D/S222D, inhibitor 0.010 nM): 100 | Proliferation of Pa16C cells expressing MEK1 mutant constructs ([3]; MEK1S218D/S222D, inhibitor 0.046 nM): 98 and 111.5 and 106.4 and 100.9 | Proliferation of Pa16C cells expressing MEK1 mutant constructs ([3]; MEK1S218D/S222D, inhibitor 11.111 nM): 89.6 and 94.3 and 98.3 and 90.9 | Proliferation of Pa16C cells expressing MEK1 mutant constructs ([3]; MEK1S218D/S222D, inhibitor 33.333 nM): 86.8 and 90.6 and 104.9 and 86 | Proliferation of Pa16C cells expressing MEK1 mutant constructs ([3]; MEK1S218D/S222D, inhibitor 100.000 nM): 81.6 and 87.3 and 91 and 73.6 | Proliferation of Pa16C cells expressing MEK1 mutant constructs ([3]; MEK1S218D/S222D, inhibitor 300.000 nM): 72.8 and 76 and 71.6 and 55.5 | Proliferation of Pa16C cells expressing MEK1 mutant constructs ([3]; MEK1WT, inhibitor 0.010 nM): 100 | Proliferation of Pa16C cells expressing MEK1 mutant constructs ([3]; MEK1WT, inhibitor 0.046 nM): 97.2 and 123.9 and 122.4 and 107.7 | Proliferation of Pa16C cells expressing MEK1 mutant constructs ([3]; MEK1WT, inhibitor 11.111 nM): 34.9 and 22.9 and 31.4 and 22.8 | Proliferation of Pa16C cells expressing MEK1 mutant constructs ([3]; MEK1WT, inhibitor 33.333 nM): 19.9 and 13.1 and 14.8 and 12.8 | Proliferation of Pa16C cells expressing MEK1 mutant constructs ([3]; MEK1WT, inhibitor 100.000 nM): 14.4 and 9 and 9.5 and 10.2 | Proliferation of Pa16C cells expressing MEK1 mutant constructs ([3]; MEK1WT, inhibitor 300.000 nM): 9.7 and 8 and 8.2 and 8.6 | pEC50 (KRAS^G12S): 7.82

From paper PMC11111408, “Concurrent inhibition of oncogenic and wild-type RAS-GTP for cancer therapy” (Nature, 2024)
